Measurements from patent publication US10697027B2, “Biological detection method for dioxins in serum, and diagnostic use therefor in metabolic syndrome and related conditions” (priority 2010, dated 2020).

How the values were obtained:
[1] = mouse treated with TCDD; cited from earlier work
[2] = tested on: HePa1c1c7 cell line expressing pCYP1A1-luc stably; experiment: Response test with the transformed cell line expressing the recombinant reporter gene (luciferase assay); type: cell-based, mouse; details: for luciferase activity over the treatment time: treatment time 4, 8 (or 24) hours
Description: The cell line stably expressing pCYP1A1-luc constructed in Example <1-2> was distributed in 60 mm culture dish at the density of 1×10^5 cells, followed by culture for 48 hours. Upon completion of the culture, the medium was replaced with DMEM supplemented with 0.5% charcoal-stripped FBS but not supplemented with phenol red, and indole-3-carbinol was treated thereto at the concentrations of 0, 0.01, 0.1, 1, 10, and 100 μM for 4, 8, or 24 hours. Then, the cells were collected, followed by luciferase assay.
The cell line stably expressing pCYP1A1-luc constructed in Example <1-2> was distributed in 60 mm culture dish at the density of 2×10^5 cells, followed by culture for 24 hours. Upon completion of the culture, the medium was replaced with DMEM supplemented with 0.5% charcoal-stipped FBS but not supplemented with phenol red, and 2,3,7,8-tetrachlorodibenzo-p-dioxin (TCDD) was treated thereto at the concentrations of 0, 0.1, 1, 10, 100, and 1000 pM for 4, or 8 hours. Then, the cells were collected, followed by luciferase assay.

SMILES | ATP synthesis [1] | ubiquinone (CoQ) in the liver [1] | luciferase activity compared with control not treated with TCDD ([2]; 10~1000 pM, treated for 4 or 8 hours) | luciferase activity over the treatment time [2] | luciferase activity compared with non-treated control group ([2]; 0.001~10 μM, treated for 4, 8 or 24 hours) | luciferase activity increase ([2]; concentration of 100 μM, treated for 4, 8 or 24 hours)
Clc1cc2c(cc1Cl)Oc1cc(Cl)c(Cl)cc1O2 [TCDD, 2,3,7,8-tetrachlorodibenzo-p-dioxin] | suppressed | reduced | significantly increased | increased over the treatment time, which was not so significant | – | –
OCc1c[nH]c2ccccc12 [indol-3-carbinol, indole-3-carbinol] | – | – | – | significant difference over the time was not detected | increased dose-dependently | at least 3 times
